The results in this text go back to patent publication US10196424B2, “Oral peptide inhibitors of interleukin-23 receptor and their use to treat inflammatory bowel diseases” (Protagonist Therapeutics, Inc., priority 2014, dated 2019).

In the test the test system is DSS-induced colitis in Sprague Dawley rats. The test can be described thus: Rat colitis model: 9 days of 3% DSS-containing drinking water. It counts as in vivo. The note with it: 100 mg/kg PO, QD.

Experimental: Rat Colitis Model: 9 Days of 3% DSS-Containing Drinking Water
In this model, colitis was induced in SD rats by 9 days of ad lib exposure to drinking water containing 3% DSS. The disease activity index (DAI) score and ratio of colon weight:colon length were compared between three study groups (n=6 rats/group): vehicle, 3% DSS, and 3% DSS with positive control (sulfasalazine administered at 100 mg/kg PO, QD).
Acute colitis was induced by feeding female Sprague Dawley rats with 3% (wt/vol) DSS dissolved in drinking water. […] A neutralizing anti-IL-23p19 antibody was used as a comparator, and was administered intraperitoneally at 4 mg/kg on the same day and fifth day after starting DSS. […] At necropsy, the entire colon was removed from the cecum to the rectum. The colon was measured for length, flushed with PBS to remove feces, weighed, and opened longitudinally to determine macroscopic score.
Statistical analysis for significance was compared to the vehicle treated group and was determined using Student's T-test (GraphPad Prism). Differences were noted as significant *p≤0.05, **p≤0.01, ***p≤0.001, ****p≤0.0001.

Consider `O=C(O)c1cc(/N=N/c2ccc(S(=O)(=O)Nc3ccccn3)cc2)ccc1O` [sulfasalazine], for which, where the note is “3% DSS rats with and without treatment”, the “terminal ratio of colon weight:colon length” value is on record as “significant”. Further, the “disease activity index (DAI) score” value (3% DSS rats, compared to DSS alone, from Day 5) is listed as “attenuated the disease score”.
